Experimental data from patent US9868737B2, “Pyridino[1,2-A]pyrimidone analogue used as MTOR/P13K inhibitor” (CISEN PHARMACEUTICAL CO., LTD., priority 2014, dated 2018).
pIC50: −log10 of the molar value. Where two headings read alike, the source gives them in different places.

System: MCF-7 cells
Assay: In vitro test of cell activity (MCF-7 cells, insulin stimulation, ELISA-One fluorescence)
Assay type: cell-based
Conditions: for inhibition at 0.5 µM / pIC50 / inhibition at 0.25 µM / inhibition at 1 µM: Homo sapiens, MCF7, MCF-7 cells; for inhibition at 0.5 µM: conc. 0.5 μM; for inhibition at 0.25 µM: conc. 0.25 μM
Method: Example In Vitro Tests of Cell Activities Experimental Steps and Methods:
1) MCF-7 cells were inoculated at the density of 2.5×10^4 cells/well into 96-well plates (the culture medium used should be a complete culture medium containing 10% FBS).
2) On the next day, the medium in each well was drawn out. A certain concentration (preliminary screening) or a series of concentration (IC50 test) of compounds were dissolved in a culture medium without serum and added to the 96-well plates to culture cells for 2 hours.
3) Insulin was dissolved in a culture medium without serum, added to the cultured cells and incubated for 30 minutes, wherein the final concentration of insulin was […].
4) A lysis solution was prepared according to the following method during the waiting period for the reaction:
a) Enhancer solution was removed from the refrigerator to melt in advance.
b) Enhancer solution was diluted 10 times with the 5× Lysis Buffer to give a concentrated lysis solution.
c) The concentrated lysis solution was diluted 5 times with double distilled water to give the lysis solution.
5) The medium in each well was completely removed and each well was quickly rinsed with PBS once.
6) 150 μl of the freshly prepared lysis solution was added to each well and shaked at room temperature for 10 minutes.
7) After confirming that all cells were detached, the lysis solution together with the cell fragments was transferred into a 1.5 ml tube.
8) The tube was shaked on vortes mixer to make the lysis solution and cells mix completely and then the mixture was centrifugated at 4° C. under 12000 g for 10 minutes.
9) The number of strips of ELISA-one micro-well plate that is required was calculated. The needless strips were removed from the frame, put back into the storage bag and sealed. Before the strips of micro-well plate were used, 200 μl of double distilled water was used to rinse each well to remove preservative.
10) 50 μl of antibody mixture was added to each well. (The antibody mixture solution was prepared by mixing the medium antibody reagent and the enzyme labeled antibody reagent with an equal proportion. The preparation of antibody mixture didn't need vortex.)
11) 25 μl of cell lysates was added to each well of ELISA-One micro-well plate. The micro-well plate was covered with adhesive sealing film and incubated on a micro-well plate oscillation instrument at room temperature for 1 hour.
12) Each well was rinsed with 150 μl of 1× rinsing buffer 3 times. After the last rinsing, the rinsing buffer in the well was completely removed. If necessary, the 1× rinsing buffer could be allowed to stay in the micro-well plate for up to 30 minutes so that the substrate mixed solution could be prepared during such time period.
13) The substrate mixed solution should be prepared just before each use, 10 μl of the substrate mixed solution was added to each well and the micro-well plate was sealed with tin-foil and incubated on the micro-well plate oscillation instrument at room temperature for 10 minutes.
14) 10 μl of stop solution was added to each well and mixed slightly (5-10 seconds) on the micro-well plate oscillation instrument.
15) The corresponding ELISA-One filter group was assembled and used to read the fluorescence signal intensity.

[1] = conc. 1 μM, read-out: % inhibition AKT
[2] = conc. 1 μM, read-out: % inhibition p70s6k

Compound	inhibition at 0.5 µM (read-out: % inhibition AKT) [%]	inhibition at 0.5 µM (read-out: % inhibition p70s6k) [%]	pIC50 (read-out: IC50 p-AKT)	other results
COc1ncc(-c2ccc3ncc(N)c(=O)n3c2)cc1NS(=O)(=O)c1ccccc1Cl [compound 91]	94.6	89.2	≥ 7.30	pIC50 (read-out: IC50 p-p70S6K): 7.00 to 7.30
COc1ncc(-c2ccc3nc(C)cc(=O)n3c2)cc1NS(=O)(=O)c1ccc(C(F)(F)F)cc1 [compound 223]	–	–	–	inhibition at 0.25 µM (read-out: % inhibition AKT): 17.9%; inhibition at 0.25 µM (read-out: % inhibition p70s6k): -1.5%
COc1ncc(-c2ccc3ncc(OC)c(=O)n3c2)cc1NS(=O)(=O)c1sc(C)nc1C [compound 111]	–	–	≥ 7.30	–
CCc1ncc(-c2ccc3nccc(=O)n3c2)cc1NS(=O)(=O)c1ccc(F)cc1F [compound 18]	–	–	–	inhibition at 1 µM [1]: 85.7%; inhibition at 1 µM [2]: 46.2%
COCOc1cnc2ccc(-c3cnc(OC)c(NS(=O)(=O)c4sc(C)nc4C)c3)cn2c1=O [compound 181]	–	–	≥ 7.30	–
COc1ncc(-c2ccc3ncc(OCC4COC4)c(=O)n3c2)cc1NS(=O)(=O)c1ccccc1F [compound 256]	–	–	≥ 7.30	–
COc1ncc(-c2ccc3nccc(=O)n3n2)cc1NS(=O)(=O)c1ccc(C#N)cc1 [compound 77]	50	4.8	–	–
COCc1cnc2ccc(-c3cnc(OC)c(NS(=O)(=O)c4sc(C)nc4C)c3)cn2c1=O [compound 239, N-(2-methoxy-5-(3-(methoxymethyl)-4-oxo-4H-pyrido[1,2-a]pyrimidin-7-yl)pyridin-3-yl)-2,4-dimethylthiazolyl-5-sulfamide]	–	–	≥ 7.30	–
COc1ccc(S(=O)(=O)Nc2cc(-c3ccc4nccc(=O)n4c3)cnc2OC)cc1 [compound 24]	–	–	7.00 to 7.30	inhibition at 1 µM [1]: 94.6%; inhibition at 1 µM [2]: 93.2%; pIC50 (read-out: IC50 p-p70S6K): 6.60 to 7.00
COc1ncc(-c2ccc3ncc(Cl)c(=O)n3c2)cc1NS(=O)(=O)c1c(C)n[nH]c1C [compound 163]	–	–	6.60 to 7.00	inhibition at 0.25 µM (read-out: % inhibition AKT): 78.1%; inhibition at 0.25 µM (read-out: % inhibition p70s6k): 88.8%; pIC50 (read-out: IC50 p-p70S6K): 7.00 to 7.30
COc1ncc(-c2ccc3ncc(OCC(=O)O)c(=O)n3c2)cc1NS(=O)(=O)c1ccc(F)cc1F [compound 177]	–	–	< 6.60	–
COc1ncc(-c2ccc3ncc(-n4ccc(C)n4)c(=O)n3c2)cc1NS(=O)(=O)c1ccc(Cl)s1 [compound 217]	–	–	–	inhibition at 0.25 µM (read-out: % inhibition AKT): 54%; inhibition at 0.25 µM (read-out: % inhibition p70s6k): 67.7%
COCCOc1cnc2ccc(-c3cnc(OC)c(NS(=O)(=O)c4sc(N(C)C)nc4C)c3)cn2c1=O [compound 193]	–	–	≥ 7.30	–
COc1ncc(-c2ccc3nccc(=O)n3c2)cc1NS(=O)(=O)c1cccc(F)c1 [compound 3]	–	–	7.00 to 7.30	inhibition at 1 µM [1]: 95.9%; inhibition at 1 µM [2]: 52.4%; pIC50 (read-out: IC50 p-p70S6K): 7.00 to 7.30
COc1ncc(-c2ccc3nccc(=O)n3c2C)cc1NS(=O)(=O)c1ccc(C#N)cc1 [compound 59]	59.7	26.5	–	–
CNc1cnc2ccc(-c3cnc(OC)c(NS(=O)(=O)c4ccc(F)cc4F)c3)cn2c1=O [compound 95, 2,4-difluoro-N-(2-methoxy-5-(3-(methylamino)-4-oxo-4H-pyrido[1,2-a]pyrimidin-7-yl)pyridin-3-yl)benzulfamide]	–	–	6.60 to 7.00	–
COc1ncc(-c2ccc3ncc(Cl)c(=O)n3c2)cc1NS(=O)(=O)c1cccc(C)c1 [compound 140]	94.8	90.5	≥ 7.30	pIC50 (read-out: IC50 p-p70S6K): 7.00 to 7.30
COCCOc1cnc2ccc(-c3cnc(OC)c(NS(=O)(=O)c4ccc(F)cc4F)c3)cn2c1=O [compound 175, 2,4-difluoro-N-(2-methoxy-5-(3-(2-methoxyethoxy)-4-oxo-4H-pyrido[1,2-a]pyrimidin-7-yl)pyridin-3-yl)benzsulfamide]	–	–	7.00 to 7.30	inhibition at 0.25 µM (read-out: % inhibition AKT): 75.2%; inhibition at 0.25 µM (read-out: % inhibition p70s6k): 65.4%; pIC50 (read-out: IC50 p-p70S6K): 6.60 to 7.00
COc1ncc(-c2ccc3ncc(N)c(=O)n3c2)cc1NS(=O)(=O)c1ccccc1F [compound 90]	92.7	87.9	≥ 7.30	pIC50 (read-out: IC50 p-p70S6K): 6.60 to 7.00

Compound	inhibition at 0.5 µM (read-out: % inhibition AKT) [%]	inhibition at 0.5 µM (read-out: % inhibition p70s6k) [%]	pIC50 (read-out: IC50 p-AKT)	other results
COc1ncc(-c2ccc3nccc(=O)n3c2)nc1NS(=O)(=O)c1ccc(F)cc1F [compound 33]	-40.9	0.8	–	–
COc1ncc(-c2ccc3ncc(OCCOC4CC4)c(=O)n3c2)cc1NS(=O)(=O)c1sc(C)nc1C [compound 204]	–	–	≥ 7.30	–
COc1ncc(-c2cn3c(=O)ccnc3cn2)cc1NS(=O)(=O)c1ccc(F)cc1F [compound 39, 2,4-difluoro-N-(2-methoxy-5-(4-oxo-4H-pyrazino[1,2-a]pyrimidin-7-yl)pyridin-3-yl)benzsulfamide]	-28.6	7.1	–	–
COc1ncc(-c2ccc3ncc(Cl)c(=O)n3c2)cc1NS(=O)(=O)c1sc(Cl)nc1C [compound 168]	–	–	≥ 7.30	–
COc1ncc(-c2ccc3nc(C)cc(=O)n3c2)cc1NS(=O)(=O)c1ccc(F)cc1F [compound 221, 2,4-difluoro-N-(2-methoxy-5-(2-methyl-4-oxo-4H-pyrido[1,2-a]pyrimidin-7-yl)pyridin-3-yl)benzsulfamide]	–	–	–	inhibition at 0.25 µM (read-out: % inhibition AKT): -42%; inhibition at 0.25 µM (read-out: % inhibition p70s6k): 6.8%
COCCOc1cnc2ccc(-c3ccc(OC)c(NS(=O)(=O)c4ccc(F)cc4F)c3)cn2c1=O [compound 205]	–	–	7.00 to 7.30	–
COc1ncc(-c2cn3c(=O)ccnc3cc2C)cc1NS(=O)(=O)c1ccc(F)cc1Cl [compound 128]	-1.1	0.4	–	–
COCCCOc1ncc(-c2ccc3ncc(Cl)c(=O)n3c2)cc1NS(=O)(=O)c1ccc(F)cc1F [compound 232]	–	–	< 6.60	–
COc1ncc(-c2cn3c(=O)ccnc3cn2)cc1NS(=O)(=O)c1ccc(C)nc1 [compound 45]	15.2	-1	–	–
Cc1ncc(-c2ccc3nccc(=O)n3c2)cc1NS(=O)(=O)c1ccc(F)cc1F [compound 14]	–	–	–	% inhibition AKT (MCF-7 cells, conc. 1 μM): 81.4%; % inhibition p70s6k (MCF-7 cells, conc. 1 μM): 47.3%
COc1ncc(-c2cn3c(=O)ccnc3cc2F)cc1NS(=O)(=O)c1ccc(F)cc1Cl [compound 117]	63.7	16.6	–	–
COCCOc1cnc2ccc(-c3cnc(OC)c(NS(=O)(=O)c4cc(Cl)ccc4F)c3)cn2c1=O [compound 272]	–	–	≥ 7.30	–
COc1ncc(-c2ccc3nccc(=O)n3n2)cc1NS(=O)(=O)c1ccc(C(F)(F)F)cc1 [compound 80]	54.6	14.4	–	–
COc1ncc(-c2ccc3ncc(F)c(=O)n3c2)cc1NS(=O)(=O)c1cc(F)ccc1F [compound 65]	84.8	89.7	≥ 7.30	pIC50 (read-out: IC50 p-p70S6K): 7.00 to 7.30
COc1ncc(-c2ccc3ncc(Cl)c(=O)n3c2)cc1NS(=O)(=O)c1ncccc1Cl [compound 159]	–	–	6.60 to 7.00	inhibition at 0.25 µM (read-out: % inhibition AKT): 68.6%; inhibition at 0.25 µM (read-out: % inhibition p70s6k): 84.8%; pIC50 (read-out: IC50 p-p70S6K): 6.60 to 7.00
COc1ncc(-c2ccc3ncc(O)c(=O)n3c2)cc1NS(=O)(=O)c1ccccc1Cl [compound 102]	–	–	–	inhibition at 0.25 µM (read-out: % inhibition AKT): 37.3%; inhibition at 0.25 µM (read-out: % inhibition p70s6k): 18.2%
COc1ncc(-c2ccc3nc(C)cc(=O)n3c2)cc1NS(=O)(=O)c1cc(F)ccc1F [compound 226]	14.8	4.6	–	–
COc1ncc(-c2ccc3ncc(N)c(=O)n3c2)cc1NS(=O)(=O)c1ccc(F)cc1Cl [compound 88]	94.8	91	≥ 7.30	pIC50 (read-out: IC50 p-p70S6K): 6.60 to 7.00
COc1ncc(-c2ccc3ncc(Cl)c(=O)n3c2)cc1NS(=O)(=O)c1ccc(C)nc1C [compound 169]	–	–	≥ 7.30	–
